# Measurements from patent US9365584B2, “Thieno [2,3-B] pyridinedione activators of AMPK and therapeutic uses thereof” (Poxel, priority 2009, dated 2016).
# Tested on: ob/ob and db/db mice
# Test: not given
# Settings: 8 day AICAR administration; cited from earlier work
row,Compound,reduces blood glucose [%]
1,NC(=O)c1ncn([C@@H]2O[C@H](CO)[C@@H](O)[C@H]2O)c1N [AICAR],35

# Tested on: AMPK
# Test: AMPK enzyme activity assay (Delfia technology, AMARA peptide substrate)
# Format: biochemical
# Settings: compound at 30 μM vs AMP at 200 μM
# Summary of the method: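 Value is the ratio of compound (30 μM) to AMP (200 μM) response, each as % of basal control. Phosphorylation of the AMARA peptide after AMPK addition was read by Delfia with an anti-phosphoserine antibody.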
row,Activity: Ratio between the % of control (basal activity) of compound of formula (1) at 30 μM and the % of control (basal activity) of AMP (natural substrate) at 200 μM,Compound
1,C (C≧75%),"O=C1Nc2sc(Cl)c(-c3cccc(F)c3)c2C(=O)C1(F)c1cccnc1 (stereo not shown) [No 212, 2-chloro-5-fluoro-3-(3-fluorophenyl)-5-(3-pyridyl)-7H-thieno[2,3-b]pyridine-4,6-dione]"
2,C (C≧75%),"Cc1cccc(-c2c(Cl)sc3c2C(=O)C(F)(c2ccccc2)C(=O)N3)c1O (stereo not shown) [No 213, 2-chloro-5-fluoro-3-(2-hydroxy-3-methyl-phenyl)-5-phenyl-7H-thieno[2,3-b]pyridine-4,6-dione]"
3,A (0%<A<50%),"O=C1Nc2scc(-c3cccnc3)c2C(=O)C1(F)c1ccccc1 (stereo not shown) [No 214, 5-fluoro-5-phenyl-3-(3-pyridyl)-7H-thieno[2,3-b]pyridine-4,6-dione]"
4,C (C≧75%),"O=C1Nc2sc(Cl)c(-c3ccc(F)cc3O)c2C(=O)C1(F)c1cccc(F)c1 (stereo not shown) [No 215, 2-chloro-5-fluoro-3-(4-fluoro-2-hydroxy-phenyl)-5-(3-fluorophenyl)-7H-thieno[2,3-b]pyridine-4,6-dione]"
5,C (C≧75%),"O=C1Nc2sc(Cl)c(-c3ccc(F)cc3O)c2C(=O)C1(Cl)c1ccccc1 (stereo not shown) [No 216, 2,5-dichloro-3-(4-fluoro-2-hydroxy-phenyl)-5-phenyl-7H-thieno[2,3-b]pyridine-4,6-dione]"
6,C (C≧75%),"Cc1ccc(-c2c(Cl)sc3c2C(=O)C(F)(c2cccc(C#N)c2)C(=O)N3)cc1C (stereo not shown) [No 217, 3-[2-chloro-3-(3,4-dimethylphenyl)-5-fluoro-4,6-dioxo-7H-thieno[2,3-b]pyridin-5-yl]benzonitrile]"
7,C (C≧75%),"CS(=O)(=O)c1ccc(C2(F)C(=O)Nc3sc(Cl)c(-c4ccc(F)cc4O)c3C2=O)cc1 (stereo not shown) [No 218, 2-chloro-5-fluoro-3-(4-fluoro-2-hydroxy-phenyl)-5-(4-methylsulfonylphenyl)-7H-thieno[2,3-b]pyridine-4,6-dione]"
8,C (C≧75%),"COc1ccc(C2(F)C(=O)Nc3sc(Cl)c(-c4ccc(F)cc4O)c3C2=O)cc1OC (stereo not shown) [No 219, 2-chloro-5-(3,4-dimethoxyphenyl)-5-fluoro-3-(4-fluoro-2-hydroxy-phenyl)-7H-thieno[2,3-b]pyridine-4,6-dione]"
9,B (50%≦B<75%),"Cc1sc2c(c1-c1ccc(F)cc1O)C(=O)C(F)(c1ccccc1)C(=O)N2 (stereo not shown) [No 220, 5-fluoro-3-(4-fluoro-2-hydroxy-phenyl)-2-methyl-5-phenyl-7H-thieno[2,3-b]pyridine-4,6-dione]"
10,C (C≧75%),"O=C1Nc2sc(Cl)c(-c3ccccc3)c2C(=O)C1(Cl)c1ccccc1 (stereo not shown) [No 222, 2,5-dichloro-3,5-diphenyl-7H-thieno[2,3-b]pyridine-4,6-dione]"
11,C (C≧75%),"CCc1ccc(-c2c(Cl)sc3c2C(=O)C(F)(c2ccccc2)C(=O)N3)c(O)c1 (stereo not shown) [No 223, 2-chloro-3-(4-ethyl-2-hydroxy-phenyl)-5-fluoro-5-phenyl-7H-thieno[2,3-b]pyridine-4,6-dione]"
12,C (C≧75%),"N#Cc1cccc(C2(F)C(=O)Nc3sc(Cl)c(-c4ccc(F)cc4O)c3C2=O)c1 (stereo not shown) [No 224, 3-[2-chloro-5-fluoro-3-(4-fluoro-2-hydroxy-phenyl)-4,6-dioxo-7H-thieno[2,3-b]pyridin-5-yl]benzonitrile]"
13,C (C≧75%),"COc1ccc(C2(F)C(=O)Nc3sc(Cl)c(-c4ccc(F)cc4O)c3C2=O)cc1C (stereo not shown) [No 225, 2-chloro-5-fluoro-3-(4-fluoro-2-hydroxy-phenyl)-5-(4-methoxy-3-methyl-phenyl)-7H-thieno[2,3-b]pyridine-4,6-dione]"
14,C (C≧75%),"O=C1Nc2sc(Cl)c(-c3ccc(F)cc3O)c2C(=O)C1(F)c1ccsc1 (stereo not shown) [No 226, 2-chloro-5-fluoro-3-(4-fluoro-2-hydroxy-phenyl)-5-(3-thienyl)-7H-thieno[2,3-b]pyridine-4,6-dione]"
15,B (50%≦B<75%),"COc1c(-c2c(Cl)sc3c2C(=O)C(F)(c2ccc(F)cc2)C(=O)N3)ccc(C)c1F (stereo not shown) [No 227, 2-chloro-5-fluoro-3-(3-fluoro-2-methoxy-4-methyl-phenyl)-5-(4-fluorophenyl)-7H-thieno[2,3-b]pyridine-4,6-dione]"
16,C (C≧75%),"Cc1ccc(-c2c(Cl)sc3c2C(=O)C(F)(c2ccc(F)cc2)C(=O)N3)c(O)c1F (stereo not shown) [No 228, 2-chloro-5-fluoro-3-(3-fluoro-2-hydroxy-4-methyl-phenyl)-5-(4-fluorophenyl)-7H-thieno[2,3-b]pyridine-4,6-dione]"
17,A (0%<A<50%),"COc1c(-c2c(Cl)sc3c2C(=O)C(F)(c2ccccc2)C(=O)N3)ccc(F)c1C (stereo not shown) [No 229, 2-chloro-5-fluoro-3-(4-fluoro-2-methoxy-3-methyl-phenyl)-5-phenyl-7H-thieno[2,3-b]pyridine-4,6-dione]"
18,A (0%<A<50%),"COc1c(-c2c(Cl)sc3c2C(=O)C(F)(c2ccccc2)C(=O)N3)ccc(C)c1F (stereo not shown) [No 230, 2-chloro-5-fluoro-3-(3-fluoro-2-methoxy-4-methyl-phenyl)-5-phenyl-7H-thieno[2,3-b]pyridine-4,6-dione]"
19,C (C≧75%),"COC1(c2ccccc2)C(=O)Nc2sc(Cl)c(-c3ccc(F)cc3O)c2C1=O (stereo not shown) [No 231, 2-chloro-3-(4-fluoro-2-hydroxy-phenyl)-5-methoxy-5-phenyl-7H-thieno[2,3-b]pyridine-4,6-dione]"
20,C (C≧75%),"Cc1ccc(-c2c(Cl)sc3c2C(=O)C(Cl)(c2ccccc2)C(=O)N3)c(O)c1F (stereo not shown) [No 232, 2,5-dichloro-3-(3-fluoro-2-hydroxy-4-methyl-phenyl)-5-phenyl-7H-thieno[2,3-b]pyridine-4,6-dione]"
21,C (C≧75%),"Cc1c(F)ccc(-c2c(Cl)sc3c2C(=O)C(Cl)(c2ccccc2)C(=O)N3)c1O (stereo not shown) [No 233, 2,5-dichloro-3-(4-fluoro-2-hydroxy-3-methyl-phenyl)-5-phenyl-7H-thieno[2,3-b]pyridine-4,6-dione]"
